Structures are written as SMILES.

The results in this text go back to patent US20160289186A1, “FLUOROMETHYL-SUBSTITUTED PYRROLE CA[…]” (Grunenthal GmbH, priority 2013, published 2016).

In the experiment the target is T1, Human CaV2.2 channels (Homo sapiens, UniProt Q00975).
T1 construct: expressed in transfected cells; host or cells: HEK293
The experiment is described as follows: Fluorescent (FLIPR) assay for CaV2.2 channels using potassium depolarization to induce channel opening. Type of experiment: cell-based. Conditions: 3 μM compound; 30 mM KCl assay buffer (inactivated channel state); HEK293 cells stably expressing human CaV2.2; read-out: Activity Category: %-Inhib (CaV2.2) @3 μM @30 mM KCl. The method, boiled down:
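HEK293 cells stably co-expressing human CaV2.2 with α2δ and β subunits plus Kir2.3, Fluo-4 loaded; compounds preincubated 15 min at 25 °C in 1 mM or 30 mM KCl buffer (inactivated state), pH 7.4. Depolarized by KCl addition; baseline-normalized peak fluorescence (ex 480/em 535 nm) gave inhibition.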

T1 sequence (Q00975 whole entry): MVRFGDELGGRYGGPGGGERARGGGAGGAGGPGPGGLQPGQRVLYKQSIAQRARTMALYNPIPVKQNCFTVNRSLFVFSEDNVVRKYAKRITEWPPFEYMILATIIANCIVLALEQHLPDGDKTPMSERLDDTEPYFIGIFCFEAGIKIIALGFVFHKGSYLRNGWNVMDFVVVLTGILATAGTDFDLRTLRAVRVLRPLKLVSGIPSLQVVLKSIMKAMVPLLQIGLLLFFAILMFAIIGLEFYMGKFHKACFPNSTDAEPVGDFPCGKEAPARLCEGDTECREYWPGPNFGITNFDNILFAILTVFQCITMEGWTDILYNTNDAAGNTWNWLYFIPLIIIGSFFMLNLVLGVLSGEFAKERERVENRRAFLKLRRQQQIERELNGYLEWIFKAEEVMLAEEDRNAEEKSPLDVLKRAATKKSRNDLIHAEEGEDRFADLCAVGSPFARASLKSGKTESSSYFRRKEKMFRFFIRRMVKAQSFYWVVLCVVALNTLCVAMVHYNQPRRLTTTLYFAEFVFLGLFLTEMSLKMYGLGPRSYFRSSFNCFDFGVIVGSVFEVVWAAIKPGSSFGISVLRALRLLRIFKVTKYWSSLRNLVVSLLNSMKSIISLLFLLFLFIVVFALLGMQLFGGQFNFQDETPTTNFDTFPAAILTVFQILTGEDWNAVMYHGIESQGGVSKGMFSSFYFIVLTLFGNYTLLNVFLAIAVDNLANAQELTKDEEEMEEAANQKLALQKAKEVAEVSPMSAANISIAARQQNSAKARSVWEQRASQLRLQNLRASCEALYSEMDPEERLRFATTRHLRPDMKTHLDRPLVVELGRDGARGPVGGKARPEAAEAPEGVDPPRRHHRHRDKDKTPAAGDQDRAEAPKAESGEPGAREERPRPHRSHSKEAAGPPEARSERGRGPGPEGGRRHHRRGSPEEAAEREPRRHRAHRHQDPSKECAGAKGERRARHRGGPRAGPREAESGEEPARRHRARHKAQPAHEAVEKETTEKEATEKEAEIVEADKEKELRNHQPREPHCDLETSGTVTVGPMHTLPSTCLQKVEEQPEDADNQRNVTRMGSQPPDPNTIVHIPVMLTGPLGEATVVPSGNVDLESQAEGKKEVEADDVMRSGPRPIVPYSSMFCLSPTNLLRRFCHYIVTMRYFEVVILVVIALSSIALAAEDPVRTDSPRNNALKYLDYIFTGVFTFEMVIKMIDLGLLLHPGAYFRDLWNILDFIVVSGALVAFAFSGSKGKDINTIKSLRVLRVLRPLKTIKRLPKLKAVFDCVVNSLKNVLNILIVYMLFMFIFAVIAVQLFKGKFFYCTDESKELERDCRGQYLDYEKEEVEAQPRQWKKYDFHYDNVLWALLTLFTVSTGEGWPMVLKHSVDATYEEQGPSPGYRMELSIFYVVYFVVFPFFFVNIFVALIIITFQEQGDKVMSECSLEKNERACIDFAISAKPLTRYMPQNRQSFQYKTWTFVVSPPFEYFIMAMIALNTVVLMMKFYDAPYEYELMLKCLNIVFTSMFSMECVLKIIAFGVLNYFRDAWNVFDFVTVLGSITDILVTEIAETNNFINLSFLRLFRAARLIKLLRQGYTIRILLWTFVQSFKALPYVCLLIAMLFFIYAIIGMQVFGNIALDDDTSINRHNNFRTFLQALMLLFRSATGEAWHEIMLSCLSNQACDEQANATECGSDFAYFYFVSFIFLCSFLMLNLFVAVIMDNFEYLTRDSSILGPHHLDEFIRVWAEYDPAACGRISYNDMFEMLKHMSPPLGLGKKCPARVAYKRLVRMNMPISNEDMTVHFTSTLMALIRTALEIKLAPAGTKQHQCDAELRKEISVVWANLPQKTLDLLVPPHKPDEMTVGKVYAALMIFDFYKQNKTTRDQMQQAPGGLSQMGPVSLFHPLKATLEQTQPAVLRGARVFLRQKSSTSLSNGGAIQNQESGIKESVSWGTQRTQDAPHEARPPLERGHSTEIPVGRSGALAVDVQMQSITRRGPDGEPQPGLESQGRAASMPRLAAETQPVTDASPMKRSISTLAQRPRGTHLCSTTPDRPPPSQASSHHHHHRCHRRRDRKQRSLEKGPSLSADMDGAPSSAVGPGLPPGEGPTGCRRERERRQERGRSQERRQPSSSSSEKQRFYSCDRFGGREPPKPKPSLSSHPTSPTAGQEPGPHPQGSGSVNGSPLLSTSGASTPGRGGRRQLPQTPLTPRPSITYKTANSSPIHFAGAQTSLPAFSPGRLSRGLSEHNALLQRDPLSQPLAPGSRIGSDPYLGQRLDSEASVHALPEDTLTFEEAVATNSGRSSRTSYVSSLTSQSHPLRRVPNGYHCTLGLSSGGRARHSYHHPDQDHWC
T1 sequence (P54284 whole entry, further chain): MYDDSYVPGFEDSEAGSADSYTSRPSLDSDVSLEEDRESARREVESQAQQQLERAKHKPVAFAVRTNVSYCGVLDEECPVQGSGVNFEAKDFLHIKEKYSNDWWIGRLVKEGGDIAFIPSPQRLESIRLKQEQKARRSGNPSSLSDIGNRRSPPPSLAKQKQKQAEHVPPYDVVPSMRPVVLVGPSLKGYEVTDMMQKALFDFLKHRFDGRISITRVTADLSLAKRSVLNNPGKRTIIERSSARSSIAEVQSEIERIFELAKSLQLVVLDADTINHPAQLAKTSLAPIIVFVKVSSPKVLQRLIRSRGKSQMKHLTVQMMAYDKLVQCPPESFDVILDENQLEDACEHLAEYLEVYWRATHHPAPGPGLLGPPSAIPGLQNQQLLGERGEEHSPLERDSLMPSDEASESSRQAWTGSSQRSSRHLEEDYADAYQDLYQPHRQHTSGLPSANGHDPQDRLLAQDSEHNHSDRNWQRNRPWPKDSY
T1 sequence (P54289 25-1103, further chain): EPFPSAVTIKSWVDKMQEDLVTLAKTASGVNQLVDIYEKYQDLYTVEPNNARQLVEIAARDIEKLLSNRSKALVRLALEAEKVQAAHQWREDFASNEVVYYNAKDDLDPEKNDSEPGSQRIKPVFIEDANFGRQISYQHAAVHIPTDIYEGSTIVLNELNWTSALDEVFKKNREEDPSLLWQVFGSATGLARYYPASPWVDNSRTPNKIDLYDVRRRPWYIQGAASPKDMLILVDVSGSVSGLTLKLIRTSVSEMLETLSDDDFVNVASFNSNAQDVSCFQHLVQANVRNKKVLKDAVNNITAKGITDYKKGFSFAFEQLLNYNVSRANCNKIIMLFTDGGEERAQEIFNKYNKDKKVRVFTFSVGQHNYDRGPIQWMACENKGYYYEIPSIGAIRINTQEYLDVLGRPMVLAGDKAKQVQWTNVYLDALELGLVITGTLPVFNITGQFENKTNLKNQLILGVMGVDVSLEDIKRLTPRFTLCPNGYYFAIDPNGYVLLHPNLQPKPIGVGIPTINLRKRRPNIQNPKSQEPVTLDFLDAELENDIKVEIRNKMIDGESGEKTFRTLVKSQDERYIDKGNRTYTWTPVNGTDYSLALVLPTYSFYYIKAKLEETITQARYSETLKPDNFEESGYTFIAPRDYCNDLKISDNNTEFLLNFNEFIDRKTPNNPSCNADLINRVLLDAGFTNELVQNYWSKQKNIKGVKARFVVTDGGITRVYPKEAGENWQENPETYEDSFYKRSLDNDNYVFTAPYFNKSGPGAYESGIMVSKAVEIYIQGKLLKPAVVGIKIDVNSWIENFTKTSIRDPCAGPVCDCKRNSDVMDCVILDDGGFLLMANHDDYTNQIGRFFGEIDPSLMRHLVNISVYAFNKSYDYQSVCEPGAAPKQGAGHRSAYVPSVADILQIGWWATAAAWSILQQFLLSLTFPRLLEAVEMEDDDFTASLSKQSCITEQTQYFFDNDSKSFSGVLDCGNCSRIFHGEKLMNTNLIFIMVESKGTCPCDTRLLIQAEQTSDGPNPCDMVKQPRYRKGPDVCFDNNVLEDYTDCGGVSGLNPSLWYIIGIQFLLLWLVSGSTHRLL

As to `Cc1c(-c2ccc(Cl)cc2)c(C(=O)N(C)C2CCNC2=O)n(C(C)C)c1C(F)(F)F` (stereo not shown) [Example 115, 3-(4-Chlorophenyl)-1-isopropyl-N,4-dimethyl-N-(2-oxo-pyrrolidin-3-yl)-5-(trifluoromethyl)-1H-pyrrole-2-carboxylic acid amide], the inhibition at 3 µM was in the range of 75 to 95%.

For `Cc1c(-c2ccc(Cl)cc2)c(C(=O)N2CCOCC2)n(CCS(C)(=O)=O)c1C(F)(F)F` [Example 099, [3-(4-Chlorophenyl)-4-methyl-1-(2-methylsulfonyl-ethyl)-5-(trifluoromethyl)-1H-pyrrol-2-yl]-morpholin-4-yl-methanone], the inhibition at 3 µM was in the range of 40 to 75%.

For `Cc1c(-c2ccc(Cl)cn2)c(C(=O)N(C)Cc2ccnn2C)n(C(C)C)c1C(F)(F)F` [Example 114, 3-(5-Chloro-pyridin-2-yl)-1-isopropyl-N,4-dimethyl-N-[(2-methyl-2H-pyrazol-3-yl)-methyl]-5-(trifluoromethyl)-1H-pyrrole-2-carboxylic acid amide], the inhibition at 3 µM was 40 to 75%.

As for `Cc1c(-c2ccc(Cl)cc2)c(C(=O)N(C)CC(C)(C)C(N)=O)n(CC(C)C)c1C(F)(F)F` [Example 052, N-(2-Carbamoyl-2-methyl-propyl)-3-(4-chlorophenyl)-N,4-dimethyl-1-(2-methyl-propyl)-5-(trifluoromethyl)-1H-pyrrole-2-carboxylic acid amide], the inhibition at 3 µM was in the range of 75 to 95%.

With `CN(CC(C)(C)C)C(=O)c1c(-c2ccc(Cl)cc2)cc(C(F)(F)F)n1CC1(C#N)CC1` [Example 100, 3-(4-Chlorophenyl)-1-[(1-cyano-cyclopropyl)-methyl]-N-(2,2-dimethyl-propyl)-N-methyl-5-(trifluoromethyl)-1H-pyrrole-2-carboxylic acid amide], the inhibition at 3 µM lay in the range of 75 to 95%.

In the case of `Cc1c(-c2ccc(Cl)cc2)c(C(=O)N(C)CC(C)(C)C)n(C)c1C(F)(F)F` [Example 002, 3-(4-Chlorophenyl)-N-(2,2-dimethyl-propyl)-N,1,4-trimethyl-5-(trifluoromethyl)-1H-pyrrole-2-carboxylic acid amide], the inhibition at 3 µM lay within 75 to 95%.

As for `Cc1c(-c2ccc(Cl)cc2)c(C(=O)N(C)CCS(C)(=O)=O)n(C(C)C)c1C(F)(F)F` [Example 110, 3-(4-Chlorophenyl)-1-isopropyl-N,4-dimethyl-N-(2-methylsulfonyl-ethyl)-5-(trifluoromethyl)-1H-pyrrole-2-carboxylic acid amide], the inhibition at 3 µM lay within 75 to 95%.

Regarding `Cc1c(-c2ccc(Cl)cc2F)c(C(=O)N(C)Cc2ccncn2)n(C2CC2)c1C(F)(F)F` [Example 021, 3-(4-Chloro-2-fluoro-phenyl)-1-cyclopropyl-N,4-dimethyl-N-(pyrimidin-4-yl-methyl)-5-(trifluoromethyl)-1H-pyrrole-2-carboxylic acid amide], the inhibition at 3 µM is above 95%.

For `Cc1c(-c2ccc(Cl)cn2)c(C(=O)N2CC[S+]([O-])C(C)(C)C2)n(C(C)C)c1C(F)(F)F` (stereo not shown) [Example 130, [3-(5-Chloro-pyridin-2-yl)-1-isopropyl-4-methyl-5-(trifluoromethyl)-1H-pyrrol-2-yl]-(2,2-dimethyl-1-oxo-[1,4]thiazinan-4-yl)-methanone], the inhibition at 3 µM is 40 to 75%.

For `CN(C(=O)c1c(-c2ccc(F)cc2)cc(C(F)(F)F)n1CC1CCCO1)C1CCOCC1` (stereo not shown) [Example 070, 3-(4-Fluorophenyl)-N-methyl-1-(tetrahydro-furan-2-yl-methyl)-N-tetrahydro-pyran-4-yl-5-(trifluoromethyl)-1H-pyrrole-2-carboxylic acid amide], the inhibition at 3 µM lay in the range of 75 to 95%.

Take `CN(CC(C)(C)CO)C(=O)c1c(-c2ccc(F)cc2)cc(C(F)(F)F)n1CC1CCCO1` (stereo not shown) [Example 074, 3-(4-Fluorophenyl)-N-(3-hydroxy-2,2-dimethyl-propyl)-N-methyl-1-(tetrahydro-furan-2-yl-methyl)-5-(trifluoromethyl)-1H-pyrrole-2-carboxylic acid amide]: the inhibition at 3 µM was 75 to 95%.

`Cc1c(-c2ccc(Cl)cc2)c(C(=O)N2CCOCC2)n(C)c1C(F)(F)F` [Example 004, [3-(4-Chlorophenyl)-1,4-dimethyl-5-(trifluoromethyl)-1H-pyrrol-2-yl]-morpholin-4-yl-methanone]: the inhibition at 3 µM is 75 to 95%.

Take `Cc1c(-c2ccc(Cl)cc2)c(C(=O)N(C)CC(C)(C)C(N)=O)n(C2CC2)c1C(F)(F)F` [Example 009, N-(2-Carbamoyl-2-methyl-propyl)-3-(4-chlorophenyl)-1-cyclopropyl-N,4-dimethyl-5-(trifluoromethyl)-1H-pyrrole-2-carboxylic acid amide]: the inhibition at 3 µM is 75 to 95%.

Regarding `CN(CCS(C)(=O)=O)C(=O)c1c(-c2ccc(Cl)cc2)cc(C(F)(F)F)n1C1CC1` [Example 037, 3-(4-Chlorophenyl)-1-cyclopropyl-N-methyl-N-(2-methylsulfonyl-ethyl)-5-(trifluoromethyl)-1H-pyrrole-2-carboxylic acid amide], the inhibition at 3 µM lay in the range of 40 to 75%.

Regarding `O=C(c1c(-c2ccc(Cl)cc2)cc(C(F)(F)F)n1C1CC1)N1CC(O)C1` [Example 026, [3-(4-Chlorophenyl)-1-cyclopropyl-5-(trifluoromethyl)-1H-pyrrol-2-yl]-(3-hydroxy-azetidin-1-yl)-methanone], the inhibition at 3 µM is 40 to 75%.

For `CC(C)Cn1c(C(F)(F)F)cc(-c2ccc(F)cc2)c1C(=O)N(C)C1CCOCC1` [Example 046, 3-(4-Fluorophenyl)-N-methyl-1-(2-methyl-propyl)-N-tetrahydro-pyran-4-yl-5-(trifluoromethyl)-1H-pyrrole-2-carboxylic acid amide], the inhibition at 3 µM is above 95%.

As to `Cc1c(-c2ccc(Cl)cc2)c(C(=O)N2CCN(C(=O)NC(C)(C)C)CC2)n(C(C)C)c1C(F)(F)F` [Example 131, N-tert-Butyl-4-[3-(4-chlorophenyl)-1-isopropyl-4-methyl-5-(trifluoromethyl)-1H-pyrrole-2-carbonyl]-piperazine-1-carboxylic acid amide], the inhibition at 3 µM lay in the range of 75 to 95%.

With `Cc1noc(C2CCN(C(=O)c3c(-c4ccc(Cl)cc4F)c(C)c(C(F)(F)F)n3C3CC3)CC2)n1` [Example 028, [3-(4-Chloro-2-fluoro-phenyl)-1-cyclopropyl-4-methyl-5-(trifluoromethyl)-1H-pyrrol-2-yl]-[4-(3-methyl-[1,2,4]oxadiazol-5-yl)-piperidin-1-yl]-methanone], the inhibition at 3 µM was in the range of 75 to 95%.

For the compound `O=C(NC1CC1)c1c(-c2ccc(F)cc2)cc(C(F)(F)F)n1CC1CCCO1` (stereo not shown) [Example 082, N-Cyclopropyl-3-(4-fluorophenyl)-1-(tetrahydro-furan-2-yl-methyl)-5-(trifluoromethyl)-1H-pyrrole-2-carboxylic acid amide], the inhibition at 3 µM was in the range of 40 to 75%.

Take `Cc1c(-c2ccc(Cl)cc2)c(C(=O)N(C)C2CC2)n(C2CC2)c1C(F)(F)F` [Example 012, 3-(4-Chlorophenyl)-N,1-dicyclopropyl-N,4-dimethyl-5-(trifluoromethyl)-1H-pyrrole-2-carboxylic acid amide]: the inhibition at 3 µM lay in the range of 75 to 95%.

With `Cc1c(-c2ccc(Cl)cc2)c(C(=O)N(C)C2(C(N)=O)CC2)n(CC(C)C)c1C(F)(F)F` [Example 051, N-(1-Carbamoyl-cyclopropyl)-3-(4-chlorophenyl)-N,4-dimethyl-1-(2-methyl-propyl)-5-(trifluoromethyl)-1H-pyrrole-2-carboxylic acid amide], the inhibition at 3 µM was above 95%.

Turning to `Cc1c(-c2ccc(Cl)cn2)c(C(=O)N(C)CC(C)(C)C(N)=O)n(C(C)C)c1C(F)(F)F` [Example 116, N-(2-Carbamoyl-2-methyl-propyl)-3-(5-chloro-pyridin-2-yl)-1-isopropyl-N,4-dimethyl-5-(trifluoromethyl)-1H-pyrrole-2-carboxylic acid amide], the inhibition at 3 µM was in the range of 40 to 75%.

On to `Cc1c(-c2ccc(Cl)cc2)c(C(=O)N(C)C2(C(N)=O)CC2)n(C2CC2)c1C(F)(F)F` [Example 007, N-(1-Carbamoyl-cyclopropyl)-3-(4-chlorophenyl)-1-cyclopropyl-N,4-dimethyl-5-(trifluoromethyl)-1H-pyrrole-2-carboxylic acid amide], for which the inhibition at 3 µM was in the range of 40 to 75%.

In the case of `Cc1c(-c2ncc(Cl)cn2)c(C(=O)N2CCOC(C)(C)C2)n(C(C)C)c1C(F)(F)F` [Example 121, [3-(5-Chloro-pyrimidin-2-yl)-1-isopropyl-4-methyl-5-(trifluoromethyl)-1H-pyrrol-2-yl]-(2,2-dimethyl-morpholin-4-yl)-methanone], the inhibition at 3 µM fell in the range of 40 to 75%.

Turning to `CN(CC(C)(C)C)C(=O)c1c(-c2ccc(Cl)cc2)cc(C(F)(F)F)n1CC1(N)CC1` [Example 088, 1-[(1-Amino-cyclopropyl)-methyl]-3-(4-chlorophenyl)-N-(2,2-dimethyl-propyl)-N-methyl-5-(trifluoromethyl)-1H-pyrrole-2-carboxylic acid amide], the inhibition at 3 µM was in the range of 75 to 95%.

On to `Cc1c(-c2ccc(Cl)cc2)c(C(=O)N2CCOC(C)(C)C2)n(CC2CCC2)c1C(F)(F)F` [Example 085, [3-(4-Chlorophenyl)-1-(cyclobutyl-methyl)-4-methyl-5-(trifluoromethyl)-1H-pyrrol-2-yl]-(2,2-dimethyl-morpholin-4-yl)-methanone], for which the inhibition at 3 µM lay in the range of 75 to 95%.

For `CN(CC(C)(C)CO)C(=O)c1c(-c2ccc(Cl)cc2)cc(C(F)(F)F)n1C1CC1` [Example 036, 3-(4-Chlorophenyl)-1-cyclopropyl-N-(3-hydroxy-2,2-dimethyl-propyl)-N-methyl-5-(trifluoromethyl)-1H-pyrrole-2-carboxylic acid amide], the inhibition at 3 µM was in the range of 75 to 95%.

As for `Cc1c(-c2ccc(Cl)cc2)c(C(=O)N2CCOCC2)n(CC2(C)CC2)c1C(F)(F)F` [Example 087, [3-(4-Chlorophenyl)-4-methyl-1-[(1-methyl-cyclopropyl)-methyl]-5-(trifluoromethyl)-1H-pyrrol-2-yl]-morpholin-4-yl-methanone], the inhibition at 3 µM is above 95%.
